Measurements taken from ChEMBL document CHEMBL4052813, “Achyrodimer F, a tyrosyl-DNA phosphodiesterase I inhibitor from an Australian fungus of the family Cortinariaceae” (Bioorg Med Chem Lett, 2017).

Legend:
[1] = target: T1, Tyrosyl-DNA phosphodiesterase 1 (Homo sapiens, UniProt Q9NUW8); assay: Inhibition of Tdp1 (unknown origin) using 5'-(6-TAMN-AGGATCTAAAAGACTT-BHQ-)3' as substrate pretreated for 30 mins followed by substrate addition by fluorescence assay
[2] = target: T1, Tyrosyl-DNA phosphodiesterase 1; assay: Inhibition of Tdp1 (unknown origin) up to 40 uM using 5'-(6-TAMN-AGGATCTAAAAGACTT-BHQ-)3' as substrate pretreated for 30 mins followed by substrate addition by fluorescence assay

T1 sequence (Q9NUW8 whole entry): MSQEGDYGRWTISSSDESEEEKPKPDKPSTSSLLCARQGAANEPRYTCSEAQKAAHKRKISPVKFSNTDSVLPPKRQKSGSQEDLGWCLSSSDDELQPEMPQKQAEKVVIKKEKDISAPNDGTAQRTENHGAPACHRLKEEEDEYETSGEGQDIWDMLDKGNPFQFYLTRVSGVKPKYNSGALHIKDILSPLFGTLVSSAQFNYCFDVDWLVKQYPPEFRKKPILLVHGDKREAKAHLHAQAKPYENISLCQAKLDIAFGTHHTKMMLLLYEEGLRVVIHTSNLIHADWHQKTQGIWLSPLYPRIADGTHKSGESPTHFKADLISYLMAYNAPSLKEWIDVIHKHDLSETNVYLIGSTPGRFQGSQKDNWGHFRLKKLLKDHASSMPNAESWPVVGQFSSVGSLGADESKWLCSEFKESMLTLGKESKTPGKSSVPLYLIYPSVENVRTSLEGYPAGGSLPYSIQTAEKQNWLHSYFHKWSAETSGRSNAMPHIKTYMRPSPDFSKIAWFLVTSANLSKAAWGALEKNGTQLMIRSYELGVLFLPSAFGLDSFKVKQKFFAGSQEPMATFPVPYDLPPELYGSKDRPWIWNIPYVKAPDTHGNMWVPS

Row | IC50 [1] | inhibition [2] | Compound
1 | 1 µM | – | O=c1cc(O)cc([C@H]2[C@H](c3ccc(O)cc3)[C@H](c3cc(O)cc(=O)o3)[C@H]2c2ccc(O)cc2)o1
2 | – | Dose-dependent effect | O=c1cc(O)cc(/C=C/c2ccc(O)cc2)o1
3 | – | Dose-dependent effect | O=c1cc(O)cc(/C=C/c2ccc(O)c(O)c2)o1
